Measurements taken from US4195172A.
In brackets after ≈: the same amount, converted by molar mass. Several values for one entry are separate records, joined by “and”; a condition that tells them apart may be missing. Identical values can stand only once. Counter-ions that a name gives are not always drawn. Like-named read-outs stand apart in the source and are kept apart here.

Columns and labels:
[1] = IC50 of products of the examples and original antibiotics; assay type: cell-based; settings: test organism not given
[2] = tested on: Torula sp., Geotrichum candidum and Cryptococcus neoformans; assay: In vitro antifungal activity in comparison with Fungizone (in words); assay type: cell-based
Text: The in vitro activities of the N-methylglucamine salts of the N-glycosyl derivative of amphotericin B and Fungizone against some fungi are compared in Table 3.

Candida albicans [3] = assay: Experimental chemotherapy of Candida albicans infected mice; assay type: in vivo; settings: Fungizone = 1
Text: The relative activity index representing the antibiotic activity in experimental chemotherapy of Candida albicans infected mice is much more advantageous for the N-methylglucamine salts of the N-glycosyl derivatives of polyene macrolides than for Fungizone/Table 4/.

Candida krusei = assay: Sensitivity of Candida krusei strains; assay type: cell-based
Text: (§1) There is a different sensitivity of different strains, for example Candida sp. to the N-methylglucamine salt of the N-glycosyl derivative of amphotericin B and Fungizone. Statistically, the amount of to Fungizone insensitive strains is much higher than the amount of to N-methylglucaminesalt of the said derivative insensitive strains. This especially concerns Candida albicans strains ZM, HM, and 1/75, Candida tropicalis strains JD and 20/75 and Candida krusei strains TS and 16/75, which are insensitive to Fungizone, but sensitive to N-methylglucamine salt of N-glycosyl derivative of amphotericin B.

Candida albicans [4] = assay: Sensitivity of Candida albicans strains; assay type: cell-based
Text: as §1

Geotrichum candidum = assay: Protection of mice in generalized geotrichosis; assay type: in vivo; settings: for in vivo activity compared with Fungizone (in words), geotrichosis: generalized geotrichosis caused by Geotrichum candidum; for ED50: read-out: Average protective DP50 doses, generalized geotrichosis
Description: (§2) Average protective DP50 doses
(§3) 24 hours in a case of genera-

[5] = Selective toxicity: potassium ion effluence from human erythrocytes versus Saccharomyces cerevisiae cells; assay type: cell-based; settings: human erythrocytes vs saccharomyces cerevisiae; 50% effluence of potassium ions from human erythrocytes / from Saccharomyces cerevisiae cells; column head is drawing 1; read-out: Selective toxicity index EK50/DK50
Text: (§4) The data representing the selective toxicity are also more advantageous for the N-methylglucamine salt of N-glycosyl derivatives of polyene macrolides than for Fungizone. The indices of selective toxicity EK50 /DK50 and EH50 /DK50, illustrating the ratio of the minimal antibiotic concentration causing 50% effluence of the potassium ions from erythrocytes of human blood/EK50 /and the minimal concentration of antibiotic causing 50% hemolysis of erythrocytes/EH50 /to the minimal antibiotic concentration causing 50% effluence of the potassium ions from Saccharomyces cerevisiae cells/DK50 /are compared in Table 6.

[6] = Stability on storage at different temperatures within 6 months (retained biological activity); settings: storage within 6 months, initial biological activity assumed as 100%, 262800 min
Candida tropicalis = assay: Sensitivity of Candida tropicalis strains; assay type: cell-based
Text: as §1

[7] = Selective toxicity: hemolysis of human erythrocytes versus potassium ion effluence from Saccharomyces cerevisiae cells; assay type: cell-based; settings: human erythrocytes vs saccharomyces cerevisiae; 50% hemolysis of human erythrocytes / 50% potassium effluence from Saccharomyces cerevisiae cells; column head is drawing 2; read-out: Selective toxicity index EH50/DK50
Text: as §4

[8] = Acute toxicity on intravenous administration in mice; settings: mouse, in vivo, administered intravenously, read-out: DL50 (the source's name)
Aspergillus fumigatus = assay: Protection of mice in generalized aspergillosis; assay type: in vivo; settings: for ED50: read-out: Average protective DP50 doses, generalized aspergillosis
Description: as §2, §3

[9] = Presence of antibiotic in serum after intravenous administration to rats; assay type: in vivo
Text: In intravenous administration to rats of N-methylglucamine salts of polyene macrolide N-glycosyl derivatives as compared to Fungizone the effect is much more advantageous for the N-methylglucamine salts because the presence of antibiotic in the serum after administration can be found longer that in the case of Fungizone/Table 5/.

pH of 1% water solution = assay type: physicochemical
[10] = Biological activity in U/mg; assay type: cell-based
[11] = prior art; cited from earlier work
[12] = aspergillosis caused by Aspergillus fumigatus

C[C@@H]1[C@H](O)[C@@H](C)/C=C/C=C/C=C/C=C/C=C/C=C/C=C/[C@H](O[C@@H]2O[C@H](C)[C@@H](O)[C@H](NC3O[C@H](CO)[C@@H](O)[C@H](O)[C@H]3O)[C@@H]2O)C[C@@H]2O[C@](O)(C[C@@H](O)C[C@@H](O)[C@H](O)CC[C@@H](O)C[C@@H](O)CC(=O)O[C@H]1C)C[C@H](O)[C@H]2C(=O)O (stereo partly drawn) [Example I, sodium salt of the N-glycosyl derivative of the amphotericin B]
IC50 [1]: 0.05 µg/mL

C[C@@H]1[C@H](O)[C@@H](C)/C=C/C=C/C=C/C=C/C=C/C=C/C=C/[C@H](O[C@@H]2O[C@H](C)[C@@H](O)[C@H](NC3O[C@H](CO)[C@@H](O)[C@H](O)[C@H]3O)[C@@H]2O)C[C@@H]2O[C@](O)(C[C@@H](O)C[C@@H](O)[C@H](O)CC[C@@H](O)C[C@@H](O)CC(=O)O[C@H]1C)C[C@H](O)[C@H]2C(=O)O (stereo partly drawn) [II, tris salt of the N-glycosyl derivative of amphotericin B]
IC50 [1]: 0.6 µg/mL

C[C@@H]1[C@H](O)[C@@H](C)/C=C/C=C/C=C/C=C/C=C/C=C/C=C/[C@H](O[C@@H]2O[C@H](C)[C@@H](O)[C@H](NC3O[C@H](CO)[C@@H](O)[C@H](O)[C@H]3O)[C@@H]2O)C[C@@H]2O[C@](O)(C[C@@H](O)C[C@@H](O)[C@H](O)CC[C@@H](O)C[C@@H](O)CC(=O)O[C@H]1C)C[C@H](O)[C@H]2C(=O)O (stereo partly drawn) [N-methylglucamine salt of N-glycosyl derivative of amphotericin B]
antifungal activity in comparison with Fungizone (in words) [2]: exhanced antifungal activity | Relative activity index in Candida albicans mice infection (Candida albicans [3]): 2.35 | sensitivity of strain (Candida krusei; Candida krusei strain 16/75): sensitive | sensitivity of strain (Candida krusei; Candida krusei strain TS): sensitive | sensitivity of strain (Candida albicans [4]; Candida albicans strain 1/75): sensitive | sensitivity of strain (Candida albicans [4]; Candida albicans strain HM): sensitive | sensitivity of strain (Candida albicans [4]; Candida albicans strain ZM): sensitive | in vivo activity compared with Fungizone (in words), geotrichosis (Geotrichum candidum): corresponds to activity of Fungizone | ED50 (Geotrichum candidum; mice, geotrichosis caused by Geotrichum candidum): 17.9 mg/kg | remaining at 4380 h (physchem): 81.2% | selectivity ratio [5]: 1.37 | Biological activity in % at +37° C. ([6]; +37° C.): 77.0% | Biological activity in % at +50° C. ([6]; +50° C.): 79.8% | Biological activity in % at RT ([6]; RT): 83.1% | sensitivity of strain (Candida tropicalis; Candida tropicalis strain 20/75): sensitive | sensitivity of strain (Candida tropicalis; Candida tropicalis strain JD): sensitive | selectivity ratio [7]: 24 | LD50 [8]: 12.1 to 14.3 mg/kg | in vivo activity compared with Fungizone (in words), aspergillosis (Aspergillus fumigatus; [12]): corresponds to activity of Fungizone | ED50 (Aspergillus fumigatus; mice, aspergillosis caused by Aspergillus fumigatus): 22.7 mg/kg | Time of the presence of an antibiotic in serum after 1/5 DL50 dose administration [9]: 15 min

C[C@@H]1[C@H](O)[C@@H](C)/C=C/C=C/CC/C=C/C=C/C=C/C=C/[C@H](O[C@@H]2O[C@H](C)[C@@H](O)[C@H](NC3O[C@H](CO)[C@@H](O)[C@H](O)[C@H]3O)[C@@H]2O)C[C@@H]2O[C@](O)(C[C@@H](O)[C@H](O)CC[C@@H](O)C[C@@H](O)C[C@@H](O)CC(=O)O[C@H]1C)C[C@H](O)[C@H]2C(=O)O (stereo partly drawn) [N-methylglucamine salt of N-glycosyl derivative of nystatin] [listing 1 of 2 here]
ED50 (Geotrichum candidum; Geotrichum candidum): 4.49 mg/kg | selectivity ratio [5]: 17.3 | selectivity ratio [7]: 45 | LD50 [8]: 19 mg/kg | ED50 (Aspergillus fumigatus; Aspergillus fumigatus): 6.28 mg/kg

C[C@@H]1[C@H](O)[C@@H](C)/C=C/C=C/CC/C=C/C=C/C=C/C=C/[C@H](O[C@@H]2O[C@H](C)[C@@H](O)[C@H](NC3O[C@H](CO)[C@@H](O)[C@H](O)[C@H]3O)[C@@H]2O)C[C@@H]2O[C@](O)(C[C@@H](O)[C@H](O)CC[C@@H](O)C[C@@H](O)C[C@@H](O)CC(=O)O[C@H]1C)C[C@H](O)[C@H]2C(=O)O (stereo partly drawn) [N-methylglucamine salt of N-glycosyl derivative of nystatin] [listing 2 of 2 here]
Relative activity index in Candida albicans mice infection (Candida albicans [3]): 2.41 | Solubility in water (Solubility in water): > 15% | in vivo activity compared with Fungizone (in words), geotrichosis (Geotrichum candidum): higher activity than Fungizone | pH 1% water solution (pH of 1% water solution): 8.3 | Biological activity [10]: 1780 U/mg | in vivo activity compared with Fungizone (in words), aspergillosis (Aspergillus fumigatus; [12]): higher activity than Fungizone | Time of the presence of an antibiotic in serum after 1/5 DL50 dose administration [9]: 30 min

C[C@@H]1[C@H](O)[C@@H](C)/C=C/C=C/CC/C=C/C=C/C=C/C=C/[C@H](O[C@@H]2O[C@H](C)[C@@H](O)[C@H](NC3O[C@H](CO)[C@@H](O)[C@H](O)[C@H]3O)[C@@H]2O)C[C@@H]2O[C@](O)(C[C@@H](O)[C@H](O)CC[C@@H](O)C[C@@H](O)C[C@@H](O)CC(=O)O[C@H]1C)C[C@H](O)[C@H]2C(=O)O (stereo partly drawn) [Sodium salt of N-glycosyl derivative of nystatin] [reference compound]
Solubility in water (Solubility in water): 4-10% | pH 1% water solution (pH of 1% water solution): 9.7 | Biological activity [10]: 1296 U/mg

C[C@@H]1[C@H](O)[C@@H](C)/C=C/C=C/CC/C=C/C=C/C=C/C=C/[C@H](O[C@@H]2O[C@H](C)[C@@H](O)[C@H](NC3O[C@H](CO)[C@@H](O)[C@H](O)[C@H]3O)[C@@H]2O)C[C@@H]2O[C@](O)(C[C@@H](O)[C@H](O)CC[C@@H](O)C[C@@H](O)C[C@@H](O)CC(=O)O[C@H]1C)C[C@H](O)[C@H]2C(=O)O (stereo partly drawn) [VII, N-methylglucamine salt of the N-glycosyl derivative of nystatin]
IC50 ([1]; read-out: IC50): 0.45 µg/mL

C[C@@H]1[C@H](O)[C@@H](C)/C=C/C=C/C=C/C=C/C=C/C=C/C=C/[C@H](O[C@@H]2O[C@H](C)[C@@H](O)[C@H](NC3O[C@H](CO)[C@@H](O)[C@H](O)[C@H]3O)[C@@H]2O)C[C@@H]2O[C@](O)(C[C@@H](O)C[C@@H](O)[C@H](O)CC[C@@H](O)C[C@@H](O)CC(=O)O[C@H]1C)C[C@H](O)[C@H]2C(=O)O (stereo partly drawn) [VIII, N-methylglucamine salt of N-glycosyl derivative of amphotericin B]
IC50 [1]: 0.1 µg/mL

C[C@@H]1[C@H](O)[C@@H](C)/C=C/C=C/CC/C=C/C=C/C=C/C=C/[C@H](O[C@@H]2O[C@H](C)[C@@H](O)[C@H](NC3O[C@H](CO)[C@H](O)[C@H](O)[C@H]3O)[C@@H]2O)C[C@@H]2O[C@](O)(C[C@@H](O)[C@H](O)CC[C@@H](O)C[C@@H](O)C[C@@H](O)CC(=O)O[C@H]1C)C[C@H](O)[C@H]2C(=O)O (stereo partly drawn) [X, N-methylglucamine salt of N-glycosyl nystatin]
IC50 ([1]; read-out: IC50): 0.45 µg/mL

C[C@@H]1[C@H](O)[C@@H](C)/C=C/C=C/CC/C=C/C=C/C=C/C=C/[C@H](O[C@@H]2O[C@H](C)[C@@H](O)[C@H](NC3O[C@H](CO)[C@@H](O[C@H]4O[C@H](CO)[C@@H](O)[C@H](O)[C@H]4O)[C@H](O)[C@H]3O)[C@@H]2O)C[C@@H]2O[C@](O)(C[C@@H](O)[C@H](O)CC[C@@H](O)C[C@@H](O)C[C@@H](O)CC(=O)O[C@H]1C)C[C@H](O)[C@H]2C(=O)O (stereo partly drawn) [XI, N-methylglucamine salt of N-glycosyl nystatin]
IC50 ([1]; read-out: IC50): 0.45 µg/mL

COC(=O)[C@H]1[C@@H]2C[C@@H](O[C@@H]3O[C@H](C)[C@@H](O)[C@H](N)[C@@H]3O)/C=C/C=C/C=C/C=C/C=C/C=C/C=C/[C@H](C)[C@@H](O)[C@@H](C)[C@H](C)OC(=O)C[C@H](O)C[C@H](O)CC[C@@H](O)[C@H](O)C[C@H](O)C[C@](O)(C[C@@H]1O)O2 [hydrochloride of methyl esters of amphotericin B]
solubility in water (in words, from literature) [11]: forms in water merely micelle

C[C@@H]1[C@H](O)[C@@H](C)/C=C/C=C/CC/C=C/C=C/C=C/C=C/[C@H](O[C@@H]2O[C@H](C)[C@@H](O)[C@H](N)[C@@H]2O)C[C@@H]2O[C@](O)(C[C@@H](O)[C@H](O)CC[C@@H](O)C[C@@H](O)C[C@@H](O)CC(=O)O[C@H]1C)C[C@H](O)[C@H]2C(=O)O [nystatin, reference compound]
IC50 ([1]; read-out: IC50): 0.18 µg/mL (≈ 0.194 µM)

polifungin [reference compound]
IC50 [1]: 0.15 µg/mL and 0.16 µg/mL
